{"source": "patent US20240025886A1", "about": "“INHIBITORS OF IGF2BP1-RNA BINDING” (YISSUM RESEARCH DEVELOPMENT COMPANY OF THE HEBREW …, priority 2020, published 2024)", "key": {"[1]": {"assay": "Cell proliferation, compound 15 (cell line not stated)", "type": "cell-based"}, "[2]": {"test_system": "H1299 cells", "assay": "Wound healing (cell migration) assay, H1299 cells", "type": "cell-based, human", "details": "H1299 cells; 10 μM compound 15 vs 20 μM 7773 in FIGS. 20A-B", "experimental": "Cells were seeded in 96 IncuCyte® ImageLock plates (20×10^3 cells per well) for 24 hours, to a near confluency of 95%, before the addition of increasing concentrations of compound. After a further 24 hours, wells were scratched using the IncuCyte® 96-well WoundMaker Tool, and the cells cultured for an additional 48 hours using the IncuCyte® S3 Live-Cell Analysis System (Essen BioScience). The plate was imaged at increments of 120 minutes for a period of 48 hours, and then analyzed for relative wound healing."}, "[3]": {"target": "Igf2bp1-cMyc RNA interaction (Homo sapiens, UniProt Q9NZI8)", "sequence (Q9NZI8 whole entry)": "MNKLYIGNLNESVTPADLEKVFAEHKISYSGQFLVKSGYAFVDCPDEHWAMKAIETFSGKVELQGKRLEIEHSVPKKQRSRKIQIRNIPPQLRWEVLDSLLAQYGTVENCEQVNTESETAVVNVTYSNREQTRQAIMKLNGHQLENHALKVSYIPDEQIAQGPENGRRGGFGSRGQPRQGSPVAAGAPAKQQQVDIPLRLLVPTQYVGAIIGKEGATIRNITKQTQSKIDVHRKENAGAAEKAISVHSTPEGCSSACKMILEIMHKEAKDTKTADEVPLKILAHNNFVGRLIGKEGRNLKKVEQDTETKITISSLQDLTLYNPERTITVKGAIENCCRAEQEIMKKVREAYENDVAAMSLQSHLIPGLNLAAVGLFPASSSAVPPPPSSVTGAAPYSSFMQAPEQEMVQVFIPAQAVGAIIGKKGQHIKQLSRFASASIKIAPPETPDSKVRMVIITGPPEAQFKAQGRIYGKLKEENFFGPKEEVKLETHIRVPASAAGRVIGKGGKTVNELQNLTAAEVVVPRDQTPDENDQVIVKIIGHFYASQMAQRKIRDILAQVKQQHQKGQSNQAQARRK", "details": "fluorescence polarization; cited from earlier work"}, "[4]": {"target": "T1, Igf2bp1 (Homo sapiens, UniProt Q9NZI8)", "T1 construct": "Recombinant full-length Igf2bp1 protein; made in house; host or cells: E. coli BL21(DE3)", "T1 sequence (Q9NZI8 whole entry)": "as above", "assay": "Microscale thermophoresis (MST) binding to full-length Igf2bp1", "details": "MST", "experimental": "Recombinant full-length Igf2bp1 protein was labelled with RED-tris-NTA dye using a Monolith NT His-Tag Labelling Kit (NanoTemper) while RRM12, KH12 and KH34 di-domain peptides were labelled using the Protein Labeling Kit RED NHS 2nd generation (NanoTemper). Labelled proteins were spun at 15,000 g for 5 min to eliminate aggregates. All samples were 2× labelled protein mix of Igf2bp1 (200 nM) in PBST and were combined (1:1) with serial dilutions of compound or Kras6 RNA in binding buffer (10 mMTris pH=7.5, 100 mM NaCl, 0.1 mM EDTA, 0.06% IPEGAL, 0.02 μg/μL tRNA, 2 mM DTT, 0.1 μg/μL heparin) in final volume of 20 μL, room temperature for 15 min. Samples were then loaded into standard capillaries (NanoTemper) and read in the Monolith NT.115 scanner (NanoTemper) using the red filter with reading conditions of 95% LED power and 40% MST power, 5 sec fluorescence before, 30 sec MST on, 5 sec fluorescence after and 25 sec delay between samples. Results were analyzed using the MO Control software (NanoTemper) for curve fitting to KD."}, "[5]": {"target": "T2, Igf2bp1 binding to Kras 6 RNA (Homo sapiens, UniProt Q9NZI8)", "T2 construct": "Recombinant full-length Igf2bp1 protein; made in house; host or cells: E. coli BL21(DE3)", "T2 sequence (Q9NZI8 whole entry)": "as above", "assay": "EMSA, Igf2bp1 with fluorescent Kras 6 RNA", "set-up": "dose or concentration left out as unconfirmed", "experimental": "Recombinant Igf2bp1 protein was serially diluted (1:1) starting at an initial concentration of 10,000 nM in 0.75 μg heparin, in a total volume of 13 μL. Fluorescently labelled Kras 6 RNA (750 nM) diluted in reaction buffer (10 mM Tris pH 7.5, 100 mM NaCl, 0.1 mM EDTA, 1 mg/mL tRNA, 0.25% IGEPAL (Sigma), 0.5 mM DTT) was heated to 65° C. for 5 minutes, kept on ice for 1 minute and RNasin (200 U/mL) (ThermoScientific, RiboLock RNase inhibitor) was then added. […] RNA was added to each well protein sample, and after a 30 min incubation at room temperature in the dark, loading dye (3 μL) (30% glycerol, 0.01% bromocresol green) was added to each mixture. For compound inhibition experiments, compounds or DMSO were incubated for 4 hours at 37° C. with the protein prior to adding the RNA. Samples were electrophoresed on native TBE polyacrylamide gels (6% acrylamide/bis-acrylamide 37.5:1, 0.5×TBE) that had been pre-run for 30 min. Gels were run at 120V in 0.5×TBE, at 4° C. in the dark. They were then carefully washed and scanned using a Typhoon FLA9500 imager using Alexa 488 laser and LPB1/2 filter. Igf2bp1-RNA complex formation was quantified using the ImageJ software. Prism6 software was used for curve fitting and KD calculations."}, "[6]": {"target": "T2, Igf2bp1 binding to Kras 6 RNA", "assay": "Fluorescence polarization (FP) assay of Igf2bp1 binding to fluorescent Kras 6 RNA", "details": "FP dose response; read-out: IC50 for inhibition of Igf2bp1 binding to Kras 6 RNA", "experimental": "For the small molecule screen, compounds were obtained from the collection maintained at the Grand Israel National Center for Personalized Medicine, consisting of molecules purchased from commercial vendors. Labelled RNA (10 nM) was incubated with recombinant Igf2bp1 protein (400 nM) in FAM-RNA buffer (10 mM Tris pH 8.0, 75 mM KCl, 0.5 mM EDTA, 1 mM DTT, 0.0188 U/μL RNAsin, 0.0005 μg/mL heparin, 0.0001 μg/μL tRNA, 0.01% Triton X-100, 3 mM MgCl2, 0.05% IGEPAL) at room temperature for 15 min. […] of this reaction mix was aliquoted with GNF WDII (USA) into wells of 1536 well plates, with a final concentration of […] compound or DMSO. The plates were spun down and read in a BMG Pherastar FS (Germany) plate reader plate reader, in FP mode with a 485/520/520 polarization filter, calibrated to 35 mP for free fluorescein with similar total intensity as experimental samples. […]\nTo determine the quality of the inventors screening assay, the Z′ factor for each plate was calculated with a Z′ factor greater than 0.5 indicating a robust assay suitable for high throughput screening. Compounds that altered the overall fluorescence intensity compared to controls were considered auto florescence and excluded from further analysis. […] Any small molecule that causes a change of more than three standard deviations from the mean is determined appropriate for further investigation."}, "[7]": {"target": "T3, La protein (UniProt P05455 P05455:1-408)", "T3 sequence": "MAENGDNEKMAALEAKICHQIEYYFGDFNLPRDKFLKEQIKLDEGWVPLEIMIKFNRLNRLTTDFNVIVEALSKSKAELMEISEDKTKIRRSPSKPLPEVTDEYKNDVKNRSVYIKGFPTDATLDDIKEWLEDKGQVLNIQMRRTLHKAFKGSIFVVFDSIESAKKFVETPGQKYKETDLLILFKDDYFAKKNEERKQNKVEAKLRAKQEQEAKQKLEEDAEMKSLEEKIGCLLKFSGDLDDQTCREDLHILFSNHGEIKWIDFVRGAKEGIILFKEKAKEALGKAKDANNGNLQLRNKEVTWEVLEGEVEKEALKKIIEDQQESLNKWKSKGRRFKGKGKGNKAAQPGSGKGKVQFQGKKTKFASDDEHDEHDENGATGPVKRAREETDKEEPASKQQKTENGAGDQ", "assay": "EMSA; not affected by 7773", "details": "label: 5'-6FAM"}}, "note": "Several values for one entry are separate records, joined by “and”; a condition that tells them apart may be missing. Identical values can stand only once.", "data": [{"molecule": "O=C(c1ccc(Cn2c(CO)cc3ccccc32)cc1)N1CCN(c2ccc3c(c2)OCO3)CC1", "note": "[Compound 15]", "values": [{"measurement": "Cell proliferation", "setting": "[1]", "result": "inhibition of cell proliferation"}, {"measurement": "Efficiency at inhibiting wound healing compared to Compound 7773", "setting": "[2]", "result": "over 10 fold"}]}, {"molecule": "NC(=O)c1ccccc1N=Cc1ccc(Br)s1", "note": "[BTYNB]", "values": [{"measurement": "Igf2bp1-cMyc RNA interaction in vitro", "setting": "[3]", "result": "inhibited"}]}, {"molecule": "O=C(c1cccc(-n2cnnn2)c1)N1CCCC(Nc2ccc3c(c2)OCO3)C1", "note": "(stereo not shown) [Compound 393, reference compound]", "values": [{"measurement": "Affinity for Igf2bp1 relative to 7773", "setting": "[4]", "result": "approximately seven times lower affinity"}, {"measurement": "Inhibition of Igf2bp1 binding to Kras 6 RNA (gel shift)", "setting": "[5]", "result": "lower, but observable, inhibition of RNA binding"}, {"measurement": "IC50", "setting": "[6]", "result": "~90 µM and > 100 µM"}]}, {"molecule": "CCCGUUGCUUUUCCUCUGGGAAGGAUGGCGCACGCUGGG (ssRNA)", "note": "[Bcl2 RNA oligo]", "values": [{"measurement": "binding result", "setting": "[7]", "result": "binds"}]}]}
